Experimental data as given in ChEMBL document CHEMBL4028821, “Synthesis and structure-activity relationship study of pyrazolo[3,4-d]pyrimidines as tyrosine kinase RET inhibitors” (Bioorg Med Chem Lett, 2017).

Columns and labels:
[1] = biological target: Proto-oncogene tyrosine-protein kinase receptor Ret (Mus musculus) (UniProt P35546); assay: Inhibition of RET in mouse BAF3 cells harboring CCDC6-RET fusion protein assessed as suppression of AKT phosphorylation after 2 hrs by Western blot method; assay type: cell-based
Sequence of Proto-oncogene tyrosine-protein kinase receptor Ret (Mus musculus) (P35546 whole entry, the tested form may be a part): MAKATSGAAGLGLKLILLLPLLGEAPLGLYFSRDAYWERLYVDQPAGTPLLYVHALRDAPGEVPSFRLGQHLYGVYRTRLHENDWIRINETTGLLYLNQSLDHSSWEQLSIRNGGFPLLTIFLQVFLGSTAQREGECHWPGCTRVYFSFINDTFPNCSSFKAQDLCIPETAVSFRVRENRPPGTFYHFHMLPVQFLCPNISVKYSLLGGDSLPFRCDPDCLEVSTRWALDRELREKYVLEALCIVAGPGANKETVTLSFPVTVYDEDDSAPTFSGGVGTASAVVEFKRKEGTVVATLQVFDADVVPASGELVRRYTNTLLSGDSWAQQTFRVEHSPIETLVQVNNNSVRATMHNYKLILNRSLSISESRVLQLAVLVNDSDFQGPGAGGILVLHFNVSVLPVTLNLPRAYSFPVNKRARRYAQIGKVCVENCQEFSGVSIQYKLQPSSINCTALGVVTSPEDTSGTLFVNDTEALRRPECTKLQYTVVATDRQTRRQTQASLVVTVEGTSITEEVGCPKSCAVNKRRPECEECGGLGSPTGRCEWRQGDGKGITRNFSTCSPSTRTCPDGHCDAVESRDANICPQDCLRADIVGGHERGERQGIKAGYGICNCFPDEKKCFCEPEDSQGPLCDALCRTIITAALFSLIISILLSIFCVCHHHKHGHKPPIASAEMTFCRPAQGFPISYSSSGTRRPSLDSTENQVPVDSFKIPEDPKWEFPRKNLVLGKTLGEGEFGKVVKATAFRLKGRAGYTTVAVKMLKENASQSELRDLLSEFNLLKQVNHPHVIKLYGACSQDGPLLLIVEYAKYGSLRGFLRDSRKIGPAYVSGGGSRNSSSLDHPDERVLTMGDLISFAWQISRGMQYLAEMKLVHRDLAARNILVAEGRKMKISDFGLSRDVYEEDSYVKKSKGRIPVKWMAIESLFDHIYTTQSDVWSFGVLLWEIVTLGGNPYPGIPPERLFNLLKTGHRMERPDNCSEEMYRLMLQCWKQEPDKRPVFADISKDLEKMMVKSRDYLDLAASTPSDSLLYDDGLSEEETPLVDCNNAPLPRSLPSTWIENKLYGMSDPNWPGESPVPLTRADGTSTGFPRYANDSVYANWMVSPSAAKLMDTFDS

[2] = biological target: Proto-oncogene tyrosine-protein kinase receptor Ret (Mus musculus) (UniProt P35546); assay: Inhibition of RET phosphorylation in mouse BAF3 cells harboring CCDC6-RET fusion protein after 2 hrs by Western blot method; assay type: cell-based
[3] = biological target: Vascular endothelial growth factor receptor 2 (Homo sapiens, UniProt P35968); assay: Inhibition of VEGFR2 (unknown origin) at 1 uM
Sequence of Vascular endothelial growth factor receptor 2 (P35968 whole entry, the tested form may be a part): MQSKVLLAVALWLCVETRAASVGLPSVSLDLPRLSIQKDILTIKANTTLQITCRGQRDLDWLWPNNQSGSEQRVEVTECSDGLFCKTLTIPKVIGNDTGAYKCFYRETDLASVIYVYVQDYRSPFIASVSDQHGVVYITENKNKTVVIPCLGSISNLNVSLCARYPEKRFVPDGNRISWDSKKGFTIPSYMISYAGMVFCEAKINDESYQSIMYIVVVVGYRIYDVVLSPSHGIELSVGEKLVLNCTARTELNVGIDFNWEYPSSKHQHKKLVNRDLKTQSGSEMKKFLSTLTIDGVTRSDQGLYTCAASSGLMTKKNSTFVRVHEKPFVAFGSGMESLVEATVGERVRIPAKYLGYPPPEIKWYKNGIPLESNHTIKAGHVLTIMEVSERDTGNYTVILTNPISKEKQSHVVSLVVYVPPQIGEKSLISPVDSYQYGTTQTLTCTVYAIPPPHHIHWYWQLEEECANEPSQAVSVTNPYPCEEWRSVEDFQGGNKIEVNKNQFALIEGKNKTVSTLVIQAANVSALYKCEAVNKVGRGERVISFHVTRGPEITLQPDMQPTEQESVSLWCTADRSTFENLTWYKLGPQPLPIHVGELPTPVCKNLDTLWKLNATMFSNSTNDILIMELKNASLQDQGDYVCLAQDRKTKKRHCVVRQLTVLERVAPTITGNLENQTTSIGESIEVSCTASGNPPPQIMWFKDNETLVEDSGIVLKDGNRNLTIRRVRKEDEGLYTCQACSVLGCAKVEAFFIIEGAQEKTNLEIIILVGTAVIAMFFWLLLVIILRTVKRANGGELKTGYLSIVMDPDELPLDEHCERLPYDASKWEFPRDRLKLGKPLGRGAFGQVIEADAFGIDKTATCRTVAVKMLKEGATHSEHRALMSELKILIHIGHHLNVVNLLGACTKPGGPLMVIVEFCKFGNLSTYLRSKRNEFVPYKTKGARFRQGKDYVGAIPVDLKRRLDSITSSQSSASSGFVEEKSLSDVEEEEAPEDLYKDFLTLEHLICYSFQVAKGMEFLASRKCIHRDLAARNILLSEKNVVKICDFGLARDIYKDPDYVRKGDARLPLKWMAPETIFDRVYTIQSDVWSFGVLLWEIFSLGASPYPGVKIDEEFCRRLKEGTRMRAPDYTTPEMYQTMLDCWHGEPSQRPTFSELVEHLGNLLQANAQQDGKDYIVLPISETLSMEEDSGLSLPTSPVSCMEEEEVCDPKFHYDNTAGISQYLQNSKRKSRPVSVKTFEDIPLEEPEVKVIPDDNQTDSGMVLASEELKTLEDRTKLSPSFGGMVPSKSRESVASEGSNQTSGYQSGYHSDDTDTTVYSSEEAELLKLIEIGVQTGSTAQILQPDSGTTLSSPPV

[4] = biological target: Proto-oncogene tyrosine-protein kinase receptor Ret (Mus musculus) (UniProt P35546); assay: Inhibition of RET in mouse BAF3 cells harboring CCDC6-RET fusion protein assessed as suppression of STAT3 phosphorylation after 2 hrs by Western blot method; assay type: cell-based
[5] = biological target: Proto-oncogene tyrosine-protein kinase receptor Ret (Mus musculus) (UniProt P35546); assay: Inhibition of RET in mouse BAF3 cells harboring CCDC6-RET fusion protein assessed as suppression of RET phosphorylation after 2 hrs by Western blot method; assay type: cell-based
[6] = system: BaF3; assay: Antiproliferative activity against mouse BAF3 cells harboring CCDC6-RET fusion protein after 72 hrs by CCK8 assay; conditions: BaF3, 72 h
[7] = biological target: Proto-oncogene tyrosine-protein kinase receptor Ret (Homo sapiens, UniProt P07949); assay: Inhibition of recombinant RET (unknown origin) using poly (Glu,Tyr) 4:1 substrate after 60 mins by ELISA
Sequence of Proto-oncogene tyrosine-protein kinase receptor Ret (P07949 whole entry): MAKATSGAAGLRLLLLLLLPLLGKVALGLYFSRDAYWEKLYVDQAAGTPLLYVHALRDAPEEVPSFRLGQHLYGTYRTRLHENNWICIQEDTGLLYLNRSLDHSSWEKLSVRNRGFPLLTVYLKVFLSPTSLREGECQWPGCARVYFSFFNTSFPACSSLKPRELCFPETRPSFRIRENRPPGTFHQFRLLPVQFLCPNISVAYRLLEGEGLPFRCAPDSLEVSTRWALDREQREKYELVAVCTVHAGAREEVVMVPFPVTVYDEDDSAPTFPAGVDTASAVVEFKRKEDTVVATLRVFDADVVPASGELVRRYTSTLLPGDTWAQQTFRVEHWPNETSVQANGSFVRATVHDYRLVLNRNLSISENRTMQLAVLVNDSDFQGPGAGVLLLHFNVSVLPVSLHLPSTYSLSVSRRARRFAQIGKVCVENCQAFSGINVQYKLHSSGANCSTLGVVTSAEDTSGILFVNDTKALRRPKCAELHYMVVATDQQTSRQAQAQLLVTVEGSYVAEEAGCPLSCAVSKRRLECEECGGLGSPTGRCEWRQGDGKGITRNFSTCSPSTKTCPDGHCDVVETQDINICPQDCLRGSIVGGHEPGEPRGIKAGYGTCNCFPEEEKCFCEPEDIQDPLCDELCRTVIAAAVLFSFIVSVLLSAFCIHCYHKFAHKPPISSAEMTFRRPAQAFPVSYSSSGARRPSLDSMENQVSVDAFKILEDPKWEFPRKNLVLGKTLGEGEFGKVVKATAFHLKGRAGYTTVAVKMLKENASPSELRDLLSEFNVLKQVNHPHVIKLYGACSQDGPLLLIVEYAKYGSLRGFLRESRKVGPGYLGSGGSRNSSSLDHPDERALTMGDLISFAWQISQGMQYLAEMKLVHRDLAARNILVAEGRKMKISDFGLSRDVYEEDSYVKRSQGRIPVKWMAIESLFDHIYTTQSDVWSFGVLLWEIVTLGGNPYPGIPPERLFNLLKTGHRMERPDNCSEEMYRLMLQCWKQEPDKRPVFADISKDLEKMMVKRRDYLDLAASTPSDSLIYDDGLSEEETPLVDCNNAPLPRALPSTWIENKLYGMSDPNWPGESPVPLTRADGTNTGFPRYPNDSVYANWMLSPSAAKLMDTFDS

SMILES: CC(O)c1cc(-c2nn(C(C)C)c3ncnc(N)c23)no1 (centres undefined)
- inhibition [1]: Dose-dependent effect
- inhibition [2]: Dose-dependent effect
- inhibition (INH) [3]: Not Active
- inhibition [4]: Dose-dependent effect
- inhibition [5]: Dose-dependent effect
- IC50 [6]: 433 nM

SMILES: CC(C)n1nc(-c2cc(CO)on2)c2c(N)ncnc21
- IC50 [6]: 454 nM

SMILES: CC(C)n1nc(C#Cc2ccccc2)c2c(N)ncnc21
- IC50 [7]: 56.5 nM
- IC50 [6]: > 1000 nM
